Molecular target: human A2a adenosine receptor (Homo sapiens (Human), UniProt P29274)
Test: A2a binding affinity using radioligand binding, Method (A)
Conditions: Method (A): [3H]SCH58261 filtration binding
Description: The A2a receptor affinity binding assay measured the amount of binding of a tritiated ligand with high affinity for the A2a adenosine receptor to membranes made from HEK293 or CHO cells recombinantly expressing the human A2a adenosine receptor, in the presence of varying concentrations of a compound of the invention. The data were generated using either filtration binding or a homogenous scintillation proximity assay (SPA).
Method (A): Measurement of A2a Binding Affinity Using Radioligand Binding
148 μL (5 μg/mL) membranes (Perkin Elmer, Cat. No. RBHA2aM400UA) and 2 μL compounds of the invention to be tested (test compound) were transferred to individual wells of a 96-well polypropylene assay plate and incubated for 15 to 30 min at room temperature. [^3H] SCH58261 ((7-(2-phenylethyl)-5-amino-2-(2-furyl)-pyrazolo-[4,3-e]-1,2,4-triazolo[1,5-c]pyrimidine)) was diluted in assay buffer (50 mM Tris pH 7.4, 10 mM MgCl2, 0.005% Tween20) to a concentration of 4 nM and 50 μL transferred to each well of the assay plate. […] The assay plate was incubated at room temperature for 60 min with agitation. […] Filtering was achieved by aspirating the contents of the assay plate for 5 sec, then washing and aspirating the contents three times with ice-cooled wash buffer (50 mM Tris-HCl pH 7.4, 150 mM NaCl) and allowing the vacuum manifold to dry the plate for […]. The filter plate was incubated for at least 1 h at 55° C. and allowed to dry. The bottom of the filter plate was sealed with backing tape. […] The plate was incubated for at least 20 min, and then the amount of radioactivity remaining in each well was determined using a TopCount® (Perkin Elmer) scintillation counter. After normalization to total and non-specific binding, the percent effect at each compound concentration was calculated. The plot of percent effect versus the log of compound concentration was analyzed electronically using a 4-parameter logistic fit based on the Levenberg-Marquardt algorithm to generate IC50 values.

human A2a adenosine receptor, sequence (P29274 whole entry): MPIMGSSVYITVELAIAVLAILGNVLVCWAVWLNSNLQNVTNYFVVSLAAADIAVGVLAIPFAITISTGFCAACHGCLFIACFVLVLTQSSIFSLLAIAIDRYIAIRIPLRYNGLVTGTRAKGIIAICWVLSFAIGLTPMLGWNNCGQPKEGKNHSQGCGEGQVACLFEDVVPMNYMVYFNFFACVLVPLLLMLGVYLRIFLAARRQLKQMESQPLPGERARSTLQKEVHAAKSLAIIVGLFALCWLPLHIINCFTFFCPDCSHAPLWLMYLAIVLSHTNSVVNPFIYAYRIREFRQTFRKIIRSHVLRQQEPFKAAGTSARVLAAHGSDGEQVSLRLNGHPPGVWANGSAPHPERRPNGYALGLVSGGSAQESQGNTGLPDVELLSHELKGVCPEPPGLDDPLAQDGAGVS

Compound	IC50
Nc1nc(-c2ncco2)cn2nc(Cc3ccccc3)nc12 [Example 1.2, 2-benzyl-6-(oxazol-2-yl)-[1,2,4]triazolo[1,5-a]pyrazin-8-amine]	3.1 nM
Cc1c(-c2nccs2)nc(N)c2nc(Cc3ccccc3)nn12 [Example 1.3]	1.3 nM
Cc1c(-c2ncccn2)nc(N)c2nc(Cc3ccccc3)nn12 [Example 1.4]	3.6 nM
Cc1nc2c(N)nc(-c3ncco3)cn2n1 [Example 1.5]	909 nM
Cc1nc2c(o1)CN(CCc1nc3c(C)c(-c4ncco4)nc(N)n3n1)C2 [Example 1.7]	7.4 nM
Cc1nc2cc(-c3ncco3)nc(N)n2n1 [Example 1.9]	534 nM
Nc1nc(-c2ccc(F)cc2)cn2nc(Cc3ccccc3)nc12 [Example 2.3, 2-benzyl-6-(4-fluorophenyl)-[1,2,4]triazolo[1,5-a]pyrazin-8-amine]	2.5 nM
Nc1nc(-c2ccccc2)cn2nc(Cc3ccccc3)nc12 [Example 2.4]	1.6 nM
Cc1nc2c(N)nc(-c3ccccc3)cn2n1 [Example 2.5]	112 nM
Cc1nc2c(N)nc(-c3ccc(F)cc3)cn2n1 [Example 2.6]	523 nM
Nc1nc(-c2cc(F)ccc2F)cn2nc(Cc3ccccc3)nc12 [Example 2.7]	2.2 nM
Cc1c(-c2ccc(F)cc2)nc(N)n2nc(CCN3CCn4c(cnc4C(C)C)C3)nc12 [Example 2.17]	124 nM
Cc1nc2c(o1)CN(CCc1nc3c(C)c(-c4cnco4)nc(N)n3n1)C2 [Example 2.25]	26.7 nM

Further lines, results first:

IC50	Compound
1.1 nM	Cc1c(-c2cccc(F)c2)nc(N)c2nc(Cc3ccccc3)nn12 [Example 3.3, 2-benzyl-6-(3-fluorophenyl)-5-methyl-[1,2,4]triazolo[1,5-a]pyrazin-8-amine]
1.1 nM	Cc1c(-c2cc(F)ccc2F)nc(N)c2nc(Cc3ccccc3)nn12 [Example 3.4]
2.2 nM	Cc1c(-c2ccccc2)nc(N)c2nc(Cc3ccccc3)nn12 [Example 3.5]
6.4 nM	Cc1c(-c2ccccc2F)nc(N)c2nc(Cc3ccccc3)nn12 [Example 3.6]
11 nM	COc1ccc(-c2nc(N)c3nc(Cc4ccccc4)nn3c2C)cc1Cl [Example 3.7]
20.6 nM	COc1ccc(-c2nc(N)c3nc(Cc4ccccc4)nn3c2C)cc1F [Example 3.8]
24.5 nM	Cc1c(-c2cncc(F)c2)nc(N)c2nc(Cc3ccccc3)nn12 [Example 3.9]
27.9 nM	Cc1c(-c2ccc(F)c(F)c2)nc(N)c2nc(Cc3ccccc3)nn12 [Example 3.10]
28.5 nM	COc1cccc(-c2nc(N)c3nc(Cc4ccccc4)nn3c2C)c1F [Example 3.11]
38 nM	Cc1c(-c2ccc(Cl)c(Cl)c2)nc(N)c2nc(Cc3ccccc3)nn12 [Example 3.12]
40 nM	COc1ncc(-c2nc(N)c3nc(Cc4ccccc4)nn3c2C)cc1F [Example 3.13]
40.6 nM	COc1ccc(-c2nc(N)c3nc(Cc4ccccc4)nn3c2C)c(F)c1 [Example 3.14]
54.8 nM	Cc1cc(-c2nc(N)c3nc(Cc4ccccc4)nn3c2C)ccn1 [Example 3.15]
73.9 nM	Cc1c(-c2ccc(Cl)c(F)c2)nc(N)c2nc(Cc3ccccc3)nn12 [Example 3.16]
82.2 nM	Cc1c(-c2ccc(F)cc2F)nc(N)c2nc(Cc3ccccc3)nn12 [Example 3.17]
84.4 nM	Cc1c(-c2ccc(Cl)cc2)nc(N)c2nc(Cc3ccccc3)nn12 [Example 3.18]
121 nM	Cc1c(-c2ccc(OC(F)F)cc2)nc(N)c2nc(Cc3ccccc3)nn12 [Example 3.19]
157 nM	Cc1c(-c2cccc(C(F)(F)F)n2)nc(N)c2nc(Cc3ccccc3)nn12 [Example 3.20]
168 nM	Cc1c(-c2ccc(Cl)cc2F)nc(N)c2nc(Cc3ccccc3)nn12 [Example 3.21]
490 nM	Cc1c(-c2cnn(C(F)(F)F)c2)nc(N)c2nc(Cc3ccccc3)nn12 [Example 3.44]
17.8 nM	Cc1c(-c2cc(C(F)(F)F)nn2C)nc(N)c2nc(Cc3ccccc3)nn12 [Example 3.45]

Reference: US12414952B2 (Merck Sharp & Dohme LLC, priority 2018, dated 2025)
